Source: patent US12692259B2, “Morpholine-containing and piperazine-containing CXCR4 modulators and uses related thereto” (Emory University, priority 2021, dated 2026)

Legend:
CYP450 isoforms 2D6 = CYP450 isoforms 2D6 (Homo sapiens, UniProt P10635); conditions: cited from earlier work
CYP450 isoforms 3A4 = CYP450 isoforms 3A4 (Homo sapiens, UniProt P08684); conditions: cited from earlier work
CXCR4 [1] = target: T1, CXCR4 (Homo sapiens, UniProt P61073); assay: Calcium flux assay (antagonist mode, SDF-1α challenge); type: cell-based; parameters: Eurofins or Bristol Myers Squibb (contract assay); conditions: read-out: CXCR4 Ca^+2 Flux IC50
T1 sequence (P61073 whole entry): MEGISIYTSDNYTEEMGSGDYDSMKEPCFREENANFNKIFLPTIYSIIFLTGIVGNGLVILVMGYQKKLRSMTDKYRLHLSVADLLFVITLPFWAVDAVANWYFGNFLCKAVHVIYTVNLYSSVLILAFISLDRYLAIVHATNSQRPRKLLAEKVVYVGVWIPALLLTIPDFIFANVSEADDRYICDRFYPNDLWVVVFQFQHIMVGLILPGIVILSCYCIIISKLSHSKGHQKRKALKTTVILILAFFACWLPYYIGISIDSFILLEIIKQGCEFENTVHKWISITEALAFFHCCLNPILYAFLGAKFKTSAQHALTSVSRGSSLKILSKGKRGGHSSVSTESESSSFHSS
Method: Calcium flux assay was performed by Eurofins or Bristol Myers Squibb. The method used by Eurofins is described below.
Compound plate preparation: Vehicle controls and positive controls were prepared to ensure all assays were properly controlled. All wells were prepared using the Eurofins Discovery Services GPCRProfiler® Assay Buffer. The GPCRProfiler® Assay Buffer was a modified Hanks Balanced Salt Solution (HBSS) where HBSS was supplemented to contain 20 mM HEPES and 2.5 mM Probenecid at pH 7.4.
Agonist assay (first addition): Compound(s) supplied were plated in duplicate for each concentration assayed. During the agonist assay, the concentration(s) reflects accommodation for the dilution of compound during the antagonist assay. Please see below for further details. […] The reference agonist for each GPCR was included at Emax (the concentration where the reference agonist elicited a maximal response). The agonist assay was conducted on a FLIPR^TETRA instrument where the test compound(s), vehicle controls, and reference agonist were added to the assay plate after a fluorescence/luminescence baseline was established. The agonist assay was a total of 180 seconds and was used to assess each compound's ability to activate each GPCR assayed. Upon completion of the three minute agonist assay, the assay plate was incubated at 25° C. for a further two minutes. After the incubation period the antagonist assay was initiated.
The antagonist assay was conducted using the same assay plate that was used for the agonist assay. The antagonist assay was conducted on a FLIPR^TETRA instrument where vehicle controls and challenge concentration of reference agonist were added to appropriate wells. The antagonist assay was a total of 180 seconds and was used to assess each compound's ability to inhibit each GPCR assayed.
Data Processing—All plates were subjected to appropriate baseline corrections. Once baseline corrections were processed, maximum fluorescence/luminescence values were exported, and data manipulated to calculate percentage activation and percentage inhibition. […] Data manipulation calculation is as followed: ((Max RLU)−(Baseline Avg.))/((Positive Avg.)−(Baseline Avg.)).

CYP3A4 = target: T2, CYP3A4 (Homo sapiens, UniProt P08684); assay: Fluorometric CYP450 inhibition assay, CYP3A4; type: in vitro ADME; conditions: read-out: CYP450 IC50 (μM) 3A4
T2 construct: purchased Corning; host or cells: insect cells (microsomes)
T2 sequence (P08684 whole entry): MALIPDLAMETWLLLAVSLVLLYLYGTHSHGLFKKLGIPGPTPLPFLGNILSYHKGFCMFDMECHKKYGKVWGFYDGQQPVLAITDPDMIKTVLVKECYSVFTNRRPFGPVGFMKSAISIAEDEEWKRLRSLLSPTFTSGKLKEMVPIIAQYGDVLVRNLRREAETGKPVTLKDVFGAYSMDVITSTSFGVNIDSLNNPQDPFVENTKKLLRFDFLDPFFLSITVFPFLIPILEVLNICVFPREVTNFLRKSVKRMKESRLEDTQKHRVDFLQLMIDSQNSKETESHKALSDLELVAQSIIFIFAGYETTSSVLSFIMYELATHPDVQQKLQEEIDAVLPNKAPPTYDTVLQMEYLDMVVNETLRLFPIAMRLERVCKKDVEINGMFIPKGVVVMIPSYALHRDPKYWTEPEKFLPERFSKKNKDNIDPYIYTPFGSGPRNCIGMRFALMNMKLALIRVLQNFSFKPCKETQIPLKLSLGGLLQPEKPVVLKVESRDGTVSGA
Method: (§1) The CYP450 inhibition assays utilized microsomes from insect cells expressing human recombinant individual cDNA-expressed CYP isoforms 3A4 and 2D6, as well as the fluorogenic probe that produces fluorescent metabolite. Standard inhibitors were co-incubated with fluorogenic substrates and their inhibitory potential (IC50) was determined. Assay conditions in terms of CYP450 protein concentration and time of incubation were standardized, enzyme kinetics parameters of each fluorescent probe substrate were estimated and IC50 values of inhibitors were determined and validated on different days to check reproducibility.
(§2) A 100 mM sodium phosphate buffer was prepared and adjusted to pH 7.4. In a separate falcon tube, a 2× enzyme/substrate (E/S) solution was prepared in phosphate buffer. The final concentration of CYP2D6 (CORNING®) and 7-amido-4-methyl coumaric acid (AMMC) was 10 nM and 4 μM, and CYP3A4 (CORNING®) and 7-benzyloxy-4-(trifluoromethyl) coumarin (BFC) was 20 nM and 40 μM, respectively. In a separate falcon tube, a 2×NADPH regenerating system (NRS) was prepared in phosphate buffer.
(§3) Both enzymatic assays were conducted in a 96-well microtiter plate (Black, CORNING® COSTAR®) with a final volume of 100 μL. Preparation of the plate began with the addition of 74 μL of the E/S in the first well, and 50 μL to all subsequent wells (from 2-11). […] A 1:3 serial dilution of the test compound was conducted by removing 25 μL from the first well and diluting it with the second and so forth until the tenth row. Final concentrations yielded a range from 200 μM-0.01 μM. Well no. 11 contained no inhibitor, and well no. 12 contained no enzyme. Both were used as controls for background fluorescence. The plate was incubated for 30 min at 37° C. After incubation, the reaction was initiated by the addition of 50 μL of the 2×NRS to each well.
(§4) Immediately (within 1 min) the fluorescence was measured using a microplate reader (BIOTEK® Synergy Neo2). […] Data was exported and analyzed using Graph Pad Prism 7. […] The IC50 value was derived after the data was fitted on a 10-point curve using a four-parameter logistic regression model.

in vitro = conditions: mouse, 10 min, 3 µM, pH 7.4
Method: Metabolic stability assay was performed at Emory University's Department of Chemistry or by Bristol Myers Squibb. The method used by Emory University's Department of Chemistry is described below.
Each method was developed in the presence of an internal standard (ISTD) d5-7-ethoxy coumarin. The column temperature was maintained at 40° C. for most of the samples otherwise noted. The detection was operated in the Agilent JetStream electrospray positive ionization using multiple reaction monitoring mode (MRM).
Other MS conditions were as follows: dwell time 100 ms; gas flow 10 L/min; nebulizer pressure 45 psi; delta EMV 200 V; fragmentor voltage and collision energy for individual compounds vary.
Test compounds were dissolved in 100% DMSO or 100% MeOH to make 10 mM stock solutions. Verapamil (Sigma Aldrich) aided as a positive control and was dissolved in 100% DMSO to make 10 mM stock solutions. The 10 mM stock solution of test and control compounds were further diluted in potassium phosphate buffer (100 mM, pH 7.4) to 500 μM to ensure the organic solvent content was <0.2%. Human liver microsomes (HLMs) were purchased from Xenotech at 20 mg/mL. NADPH (Sigma Aldrich) 10 mM stocks were prepared in deionized water.
The HLM assay was prepared in a 1.5 mL Eppendorf tube with a final volume of 1100 μL for duplicate runs. Each reaction contained phosphate buffer (928.4 μL), liver microsomes (55 μL), and test compound resulting in a final concentration of 3 μM (6.6 μL of 500 μM). The reaction was initiated with 110 μL of 10 mM NADPH. […] Before centrifugation each of the aliquoted tubes were vortexed to make sure compounds were in the solution. The aliquots were centrifuged at 12,000 g for 5 min and the supernatant removed and placed in an LC-MS vial. Each time point was assessed using LC-MS and the area, based on the extracted ion, was integrated with respect to the ISTD. […] A no-NADPH negative control with test or control compound was performed in a single run (150 μL) at the longest time point. Controls were processed and analyzed like the test compounds. Each time point was run in duplicates followed by in-between blank washes to avoid the carryover and to equilibrate the column.
The MLM assay was performed using the same procedures as those described above for the HLM assay.

[2] = Metabolic stability assay, human liver microsomes (HLM); type: in vitro ADME; conditions: 10 min
Text: Controls were processed and analyzed like the test compounds.

PAMPA assay = type: in vitro ADME; conditions: pH 7.4
Method: PAMPA assay was performed by BioAssay Systems Services or Bristol Myers Squibb. The method used by BioAssay Systems Services is described below.
Stock solutions in DMSO for all compounds (10 mM) were thawed. The assay was performed in duplicate by following the PAMPA-096 procedure for sample plating. 4% Lecithin in dodecane solution was prepared by resuspending the dried lecithin with 750 μL dodecane. PBS pH 7.4 was used as the diluent. Two sets of plates and equilibrium solutions were incubated for 4 hours at room temperature. Acceptor and equilibrium solutions were analyzed in a UV plate. OD280 nm was used for High Permeability Control (chloramphenicol). OD270 nm was used for Medium Permeability Control (diclofenac) and Low Permeability Control (theophylline). OD254 nm was used for the test compounds.
Data analysis was performed by using the peak absorbance for each respective test compound and Permeability Control to determine the Permeability Rate (Pe) via the following equation: […]
where ODA is the absorbance of Acceptor Solution, ODE is the absorbance of the Equilibrium Standard, and C is determined by the equation below: […]
where Donor Volume (VD) is 0.2 cm^3, Acceptor Volume (VA) is 0.3 cm^3, and Membrane Area (Area) is 0.24 cm^2.

CYP2D6 = target: T3, CYP2D6 (Homo sapiens, UniProt P10635); assay: Fluorometric CYP450 inhibition assay, CYP2D6; type: in vitro ADME; conditions: read-out: CYP450 IC50 (μM) 2D6
T3 construct: purchased Corning; host or cells: insect cells (microsomes)
T3 sequence (P10635 whole entry): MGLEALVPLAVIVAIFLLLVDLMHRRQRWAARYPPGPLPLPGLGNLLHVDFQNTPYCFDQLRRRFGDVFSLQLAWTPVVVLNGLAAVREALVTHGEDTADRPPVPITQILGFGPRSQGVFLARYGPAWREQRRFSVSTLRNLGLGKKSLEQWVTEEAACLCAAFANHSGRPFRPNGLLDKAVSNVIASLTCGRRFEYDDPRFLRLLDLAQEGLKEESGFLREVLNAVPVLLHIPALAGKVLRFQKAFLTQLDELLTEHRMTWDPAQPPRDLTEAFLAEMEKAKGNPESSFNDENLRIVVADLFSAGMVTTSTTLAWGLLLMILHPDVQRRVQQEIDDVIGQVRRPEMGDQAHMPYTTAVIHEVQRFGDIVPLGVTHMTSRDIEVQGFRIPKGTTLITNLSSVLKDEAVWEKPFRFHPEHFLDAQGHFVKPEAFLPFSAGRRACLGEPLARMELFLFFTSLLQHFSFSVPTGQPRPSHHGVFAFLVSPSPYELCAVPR
Method: as §1, §2, §3, §4

CXCR4 [3] = target: T1, CXCR4; assay: cAMP assay in CXCR4-CHO-Glo cells (GloSensor, forskolin + SDF-1α); type: cell-based; parameters: expressed in transfected cells
Text: Materials, reagents, and instrument—Advanced DMEM (Gibco), trypsin EDTA (0.05%, phenol red), L-glutamine, HBSS buffer with and without Ca^2+/Mg^2+ (Gibco), antibiotic-antimycotic (Gibco), hygromycin B, and geneticin selective antibiotic (G418 sulfate) were purchased from Invitrogen. Forskolin (Tocris), SDF-1α (R&D Systems), HEPES (Sigma Aldrich), FBS (Atlanta Biologicals), D-luciferin (Gold Biotechnology), sterile 60 mm tissue culture dishes, and 96-well sterile tissue culture plates were purchased from Corning.
The assay targeted CXCR4 expressed in CHO-gloSensor cells. It monitored GPCR activation based on forskolin-stimulated cAMP production in cells. The assay used a genetically encoded biosensor with its cAMP binding domain fused to luciferase. Binding of cAMP to the cAMP binding domain changed the conformation of the biosensor, leading to the activation of luciferase. The intensity of the luciferase signal (light output) resulted from the oxidation of D-luciferin to oxyluciferin is proportional to the amount of cAMP produced in the cells.
The assay was performed in triplicate using live cells in 96-well tissue culture plates. Cells were pre-incubated in the dark at room temperature for one hour in the presence of D-luciferin. Bioluminescence was quantified before and after the agonist/antagonist addition. Stock solution of forskolin and SDF-1a, was prepared in Locke-Luc buffer. Stock solutions of the test compounds were prepared in DMSO (10 mM); they were diluted by Locke's buffer for use in the assay.
CHO-Glo cells, a cell line stably expressing the GloSensor cAMP biosensor (Promega), were transfected with cDNA encoding human CXCR4 in Pires-AcGFP1 (Clontech) and a stable cell line was isolated (CXCR4-CHO-Glo cells). The CXCR4-CHO-Glo cells were grown to confluency on 60 mm tissue culture dishes. After trypsinization, the cells were plated on 96-well plates and incubated overnight. The next day, culture media in each well was aspirated and replaced with 100 μL Locke's buffer containing 4 mM D-luciferin, followed by incubation in the dark for one hour. Before the addition of agonist/antagonist, each plate was read five times at 2 min intervals to obtain basal bioluminescence values from each well. The average of these five pre-readings was used to normalize each well's response to account for differences in GloSensor expression and cell density. After five pre-readings, cAMP formation was initiated with the addition of 50 μL solution of test compound (TC) in Locke Luc buffer containing forskoline and SDF-1α. […] Luminescence was measured immediately after the addition of the antagonist solution. The measurements were taken every two minutes for 30 minutes in kinetics mode after antagonist addition. IC50 values were calculated from the 4-parameter logistic equation using Prism GraphPad.

Chain of CYP450 isoforms 3A4 (P08684 whole entry, canonical isoform): as the sequence (P08684 whole entry) above
Chain of CYP450 isoforms 2D6 (P10635 whole entry, canonical isoform): as the sequence (P10635 whole entry) above

SMILES | inhibition of CYP450 isoform 2D6 (CYP450 isoforms 2D6) | inhibition of CYP450 isoform 3A4 (CYP450 isoforms 3A4) | IC50 (CXCR4 [1]) [nM] | IC50 (CYP3A4) [µM] | Liver Microsomes % rem. @ 10 min. M (in vitro) [%] | Liver Microsomes % rem. @ 10 min. H [2] [%] | Papp at 4 h (PAMPA assay) [×10⁻⁶ cm/s] | IC50 (CYP2D6) [µM] | IC50 (CXCR4 [3]) [nM]
NCCCCN(Cc1nc2ccccc2[nH]1)[C@H]1CCCc2cccnc21 [AMD11070, mavorixafor] | significant inhibition | significant inhibition | – | – | – | – | – | – | –
c1ccc2c(c1)CN[C@@H](CN(CCCCN1CCOCC1)[C@H]1CCCc3cccnc31)C2 [EMU-178] | – | – | 82.5 | > 20 | 3.68 | 52.6 | 21.2 | 0.44 | –
c1cnc2c(c1)CN[C@H](CN(CCCCN1CCOCC1)[C@@H]1CCCc3cccnc31)C2 [EMU-204, (R)—N-(4-morpholinobutyl)-N—(((S)-5,6,7,8-tetrahydro-1,6-naphthyridin-7-yl)methyl)-5,6,7,8-tetrahydroquinolin-8-amine] | – | – | 270 | > 20 | 19.6 | 100 | 21.5 | > 20 | –
CN(C[C@H]1Cc2c(cccc2N2CCN(C(=O)OCc3ccccc3)CC2)CN1)[C@H]1CCCc2cccnc21 [EMU-291] | – | – | – | > 20 | 66.4 | 35.6 | – | > 20 | 2320
CN(C[C@H]1Cc2c(cccc2N2CCN(C(N)=O)CC2)CN1)[C@H]1CCCc2cccnc21 [EMU-326, 4-((R)-3-((methyl((S)-5,6,7,8-tetrahydroquinolin-8-yl)amino)methyl)-1,2,3,4-tetrahydroisoquinolin-5-yl)piperazine-1-carboxamide] | – | – | – | – | 78.3 | 87.1 | 7.6 | – | 492
CN(C)C(=O)N1CCN(c2cccc3c2C[C@H](CN(C)[C@H]2CCCc4cccnc42)NC3)CC1 [EMU-327, N,N-dimethyl-4-((R)-3-((methyl((S)-5,6,7,8-tetrahydroquinolin-8-yl)amino)methyl)-1,2,3,4-tetrahydroisoquinolin-5-yl)piperazine-1-carboxamide] | – | – | – | – | 38.10 | 11.00 | 12.2 | – | 684
